Here are results for 16 molecules from patent EP3154958B1, “PHOSPHATIDYLINOSITOL 3-KINASE INHIBITORS” (Gilead Sciences, Inc., priority 2014, dated 2015).

Where two headings read alike, the source gives them in different places.

Type in all cases: biochemical
For one test, the target named is T1, PI3Kγ (Homo sapiens, UniProt P48736).
T1 construct: made in house
Nature of the test: TR-FRET enzymatic activity assay, PI3Kγ. The method in brief: (§1)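 Enzymatic activity against the PI3K isoforms was measured using a time-resolved fluorescence resonance energy transfer (TR-FRET) assay.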
On the technique in general: In TR-FRET formats the signal depends on donor and acceptor labels being close together.

In a further test the target is T2, PI3Kδ (Homo sapiens, UniProt O00329).
T2 construct: made in house
The test is described as follows: TR-FRET enzymatic activity assay, PI3Kδ. The method in brief: as §1

The next test deals with T3, PI3Kβ (Homo sapiens, UniProt P42338).
T3 construct: made in house
Nature of the test: TR-FRET enzymatic activity assay, PI3Kβ. The method in brief: as §1

Setting [1] is: recombinant heterodimeric PI3Kγ 2 nM, 2× Km ATP, 30 minutes at 25°C.
The mark [2] stands for this setting: recombinant heterodimeric PI3Kδ 25-50 pM, 2× Km ATP, 30 minutes at 25°C.
The mark [3] stands for this setting: recombinant heterodimeric PI3Kβ 25-50 pM, 2× Km ATP, 30 minutes at 25°C.

T1 sequence (P48736 whole entry): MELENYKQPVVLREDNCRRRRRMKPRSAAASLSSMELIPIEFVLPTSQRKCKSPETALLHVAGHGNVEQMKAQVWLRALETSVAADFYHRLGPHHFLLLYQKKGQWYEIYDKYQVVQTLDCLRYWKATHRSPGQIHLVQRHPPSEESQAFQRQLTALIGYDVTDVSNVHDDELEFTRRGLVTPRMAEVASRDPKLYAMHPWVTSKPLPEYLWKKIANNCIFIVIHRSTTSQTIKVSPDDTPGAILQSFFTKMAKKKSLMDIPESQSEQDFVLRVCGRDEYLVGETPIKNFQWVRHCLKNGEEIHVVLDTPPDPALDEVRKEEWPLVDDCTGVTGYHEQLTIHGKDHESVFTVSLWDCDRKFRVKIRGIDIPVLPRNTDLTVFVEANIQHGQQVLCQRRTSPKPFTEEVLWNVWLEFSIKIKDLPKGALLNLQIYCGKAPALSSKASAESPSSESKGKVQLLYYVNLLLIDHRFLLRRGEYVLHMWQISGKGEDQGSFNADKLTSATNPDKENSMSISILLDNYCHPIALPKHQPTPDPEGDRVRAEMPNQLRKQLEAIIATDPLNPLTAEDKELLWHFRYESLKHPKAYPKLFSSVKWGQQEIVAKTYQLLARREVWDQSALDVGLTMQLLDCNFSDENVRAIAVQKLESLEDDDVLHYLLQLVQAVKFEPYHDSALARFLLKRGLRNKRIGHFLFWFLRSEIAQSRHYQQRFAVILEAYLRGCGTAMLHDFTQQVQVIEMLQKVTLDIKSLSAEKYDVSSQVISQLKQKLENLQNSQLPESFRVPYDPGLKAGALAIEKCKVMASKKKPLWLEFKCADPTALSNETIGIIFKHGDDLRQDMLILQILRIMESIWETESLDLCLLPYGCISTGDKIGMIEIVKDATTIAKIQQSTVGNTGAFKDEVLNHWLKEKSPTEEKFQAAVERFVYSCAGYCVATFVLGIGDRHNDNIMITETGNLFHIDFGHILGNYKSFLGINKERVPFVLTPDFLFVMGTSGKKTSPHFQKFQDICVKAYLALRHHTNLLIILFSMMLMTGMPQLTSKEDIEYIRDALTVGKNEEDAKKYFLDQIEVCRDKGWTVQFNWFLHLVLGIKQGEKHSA
T1 sequence (Q8WYR1 whole entry partner): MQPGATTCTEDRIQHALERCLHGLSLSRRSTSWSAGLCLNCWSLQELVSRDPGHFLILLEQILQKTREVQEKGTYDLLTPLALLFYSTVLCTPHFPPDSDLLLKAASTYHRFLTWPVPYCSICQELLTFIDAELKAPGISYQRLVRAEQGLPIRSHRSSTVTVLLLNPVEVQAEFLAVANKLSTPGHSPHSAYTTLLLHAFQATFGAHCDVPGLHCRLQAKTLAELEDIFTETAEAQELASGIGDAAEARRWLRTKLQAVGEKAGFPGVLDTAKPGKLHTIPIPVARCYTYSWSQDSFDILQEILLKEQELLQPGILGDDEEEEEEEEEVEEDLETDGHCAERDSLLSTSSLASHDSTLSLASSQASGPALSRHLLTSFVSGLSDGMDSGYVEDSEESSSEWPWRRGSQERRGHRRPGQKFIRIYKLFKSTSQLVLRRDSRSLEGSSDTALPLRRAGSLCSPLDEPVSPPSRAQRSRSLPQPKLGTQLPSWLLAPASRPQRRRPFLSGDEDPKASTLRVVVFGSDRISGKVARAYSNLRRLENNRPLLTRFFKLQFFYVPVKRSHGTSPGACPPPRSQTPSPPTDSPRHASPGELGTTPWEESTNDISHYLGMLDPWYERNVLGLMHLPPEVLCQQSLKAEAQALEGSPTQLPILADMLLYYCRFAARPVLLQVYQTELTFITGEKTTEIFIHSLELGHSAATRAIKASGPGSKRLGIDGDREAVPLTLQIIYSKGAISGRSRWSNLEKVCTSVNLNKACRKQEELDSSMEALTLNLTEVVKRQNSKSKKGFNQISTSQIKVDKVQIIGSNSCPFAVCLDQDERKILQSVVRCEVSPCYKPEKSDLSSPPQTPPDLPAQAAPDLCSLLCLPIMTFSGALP
T3 sequence (P42338 whole entry): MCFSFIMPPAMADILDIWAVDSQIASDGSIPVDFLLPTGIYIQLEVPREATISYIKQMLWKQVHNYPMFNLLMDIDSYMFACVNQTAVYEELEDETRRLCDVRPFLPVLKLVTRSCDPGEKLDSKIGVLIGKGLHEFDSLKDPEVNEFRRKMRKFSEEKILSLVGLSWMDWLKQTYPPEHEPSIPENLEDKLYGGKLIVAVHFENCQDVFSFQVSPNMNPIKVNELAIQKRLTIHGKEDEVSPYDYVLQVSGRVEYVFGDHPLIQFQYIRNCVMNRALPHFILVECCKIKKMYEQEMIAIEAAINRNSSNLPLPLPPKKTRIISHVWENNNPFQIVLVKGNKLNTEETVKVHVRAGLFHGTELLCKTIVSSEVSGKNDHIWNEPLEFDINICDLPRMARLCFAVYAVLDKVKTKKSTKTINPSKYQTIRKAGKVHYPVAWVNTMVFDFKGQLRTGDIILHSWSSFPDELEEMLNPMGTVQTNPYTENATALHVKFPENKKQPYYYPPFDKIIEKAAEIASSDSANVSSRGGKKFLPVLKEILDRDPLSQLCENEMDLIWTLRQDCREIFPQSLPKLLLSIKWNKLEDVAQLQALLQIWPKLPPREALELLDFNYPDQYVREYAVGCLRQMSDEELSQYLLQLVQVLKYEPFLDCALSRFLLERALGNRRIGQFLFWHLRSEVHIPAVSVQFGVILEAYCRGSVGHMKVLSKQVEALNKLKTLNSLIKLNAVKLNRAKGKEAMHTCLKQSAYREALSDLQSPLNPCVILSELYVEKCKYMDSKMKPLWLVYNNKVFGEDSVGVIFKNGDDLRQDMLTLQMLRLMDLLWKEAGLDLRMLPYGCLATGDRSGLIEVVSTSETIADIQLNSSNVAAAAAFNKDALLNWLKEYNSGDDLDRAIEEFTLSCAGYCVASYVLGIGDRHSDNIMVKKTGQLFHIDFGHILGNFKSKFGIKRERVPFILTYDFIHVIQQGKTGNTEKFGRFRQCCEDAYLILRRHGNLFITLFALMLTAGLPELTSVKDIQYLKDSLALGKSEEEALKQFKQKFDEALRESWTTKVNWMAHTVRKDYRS
T3 sequence (P27986 whole entry partner): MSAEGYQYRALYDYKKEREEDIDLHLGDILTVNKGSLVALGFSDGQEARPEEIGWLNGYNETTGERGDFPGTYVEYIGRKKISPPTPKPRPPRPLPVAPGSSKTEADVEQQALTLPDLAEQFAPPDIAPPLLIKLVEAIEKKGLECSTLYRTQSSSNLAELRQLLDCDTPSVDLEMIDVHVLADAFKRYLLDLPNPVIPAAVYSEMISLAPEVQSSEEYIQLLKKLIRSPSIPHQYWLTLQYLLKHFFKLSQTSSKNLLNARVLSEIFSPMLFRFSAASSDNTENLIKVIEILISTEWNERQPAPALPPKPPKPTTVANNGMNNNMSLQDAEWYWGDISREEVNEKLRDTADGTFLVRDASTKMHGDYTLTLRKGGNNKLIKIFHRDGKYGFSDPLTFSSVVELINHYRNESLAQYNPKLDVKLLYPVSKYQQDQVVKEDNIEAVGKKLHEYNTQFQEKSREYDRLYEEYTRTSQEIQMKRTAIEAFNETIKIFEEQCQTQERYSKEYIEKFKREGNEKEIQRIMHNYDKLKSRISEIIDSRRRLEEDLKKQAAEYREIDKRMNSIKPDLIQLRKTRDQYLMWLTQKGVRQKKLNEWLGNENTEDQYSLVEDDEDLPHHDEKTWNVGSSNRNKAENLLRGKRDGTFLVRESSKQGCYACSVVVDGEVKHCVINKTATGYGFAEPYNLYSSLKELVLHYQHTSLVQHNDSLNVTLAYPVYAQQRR
T2 sequence (O00329 whole entry): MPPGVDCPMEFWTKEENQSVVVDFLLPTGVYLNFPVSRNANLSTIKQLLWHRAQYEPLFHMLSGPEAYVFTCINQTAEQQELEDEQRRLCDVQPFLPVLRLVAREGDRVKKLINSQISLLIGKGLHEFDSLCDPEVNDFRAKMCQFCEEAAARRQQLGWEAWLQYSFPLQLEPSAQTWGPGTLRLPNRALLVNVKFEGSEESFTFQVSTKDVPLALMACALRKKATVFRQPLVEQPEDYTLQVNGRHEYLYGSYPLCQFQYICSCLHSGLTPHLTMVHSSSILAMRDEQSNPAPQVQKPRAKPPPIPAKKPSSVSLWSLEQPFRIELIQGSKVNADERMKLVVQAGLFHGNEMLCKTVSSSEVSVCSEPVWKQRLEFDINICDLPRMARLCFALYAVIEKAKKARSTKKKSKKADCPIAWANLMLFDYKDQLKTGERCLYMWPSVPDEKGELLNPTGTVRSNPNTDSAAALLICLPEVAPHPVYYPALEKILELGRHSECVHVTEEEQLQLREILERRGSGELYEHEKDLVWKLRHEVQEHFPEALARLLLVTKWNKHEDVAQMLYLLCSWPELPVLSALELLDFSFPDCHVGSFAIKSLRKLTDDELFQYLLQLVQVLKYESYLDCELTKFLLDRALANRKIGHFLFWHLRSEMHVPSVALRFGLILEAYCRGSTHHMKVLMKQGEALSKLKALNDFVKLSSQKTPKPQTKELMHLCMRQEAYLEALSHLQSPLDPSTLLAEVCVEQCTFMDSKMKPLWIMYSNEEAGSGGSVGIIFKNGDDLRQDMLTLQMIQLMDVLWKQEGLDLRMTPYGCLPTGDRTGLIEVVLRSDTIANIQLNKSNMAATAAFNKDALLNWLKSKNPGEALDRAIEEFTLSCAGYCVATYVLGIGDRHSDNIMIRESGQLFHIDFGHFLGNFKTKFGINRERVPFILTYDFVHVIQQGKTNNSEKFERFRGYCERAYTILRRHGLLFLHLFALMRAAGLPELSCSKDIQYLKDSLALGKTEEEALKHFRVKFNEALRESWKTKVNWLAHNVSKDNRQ
T2 sequence (P27986 whole entry partner): as the sequence (P27986 whole entry partner) above

A word on the IC50: it is the midpoint of a concentration-inhibition curve. As to `N#Cc1c(N)nc(N)nc1N1CCC[C@@H]1c1nc2cccc(F)c2c(=O)n1N1CCN(Cc2ccccc2)CC1` (stereo in doubt) [Compound 124, (R)-2,4-diamino-6-(2-(3-(4-benzylpiperazin-1-yl)-5-fluoro-4-oxo-3,4-dihydroquinazolin-2-yl)pyrrolidin-1-yl)pyrimidine-5-carbonitrile], the figures for the IC50 on PI3Kγ (setting [1]), at PI3Kδ (setting [2]) and on PI3Kβ (setting [3]) were more than 10000 nM, 390 nM and 1300 nM, respectively.

Turning to `CC[C@H](Nc1nc(N)nc(C)c1C#N)c1nc2cccc(Cl)c2c(=O)n1C1CCNCC1` [Compound 23, (S)-2-amino-4-((1-(5-chloro-4-oxo-3-(piperidin-4-yl)-3,4-dihydroquinazolin-2-yl)propyl)amino)-6-methylpyrimidine-5-carbonitrile], the IC50 on PI3Kγ (setting [1]) was more than 10000 nM; on PI3Kδ (setting [2]), 5 nM; on PI3Kβ (setting [3]), 3 nM.

Turning to `C[C@H](Nc1nc(N)nc(N)c1C#N)c1nc2cccc(Cl)c2c(=O)n1N1CCNC(C(F)(F)F)C1` (stereo partly drawn) [Compound 61, 2,4-diamino-6-(((1S)-1-(5-chloro-4-oxo-3-(3-(trifluoromethyl)piperazin-1-yl)-3,4-dihydroquinazolin-2-yl)ethyl)amino)pyrimidine-5-carbonitrile], the half-inhibitory concentration (IC50) was 400 nM on PI3Kγ (setting [1]), 0.9 nM on PI3Kδ (setting [2]) and 150 nM on PI3Kβ (setting [3]).

For `C[C@H](Nc1ncnc(N)c1C#N)c1nc2cccc(Cl)c2c(=O)n1N1CCCNCC1` [Compound 66, (S)-4-amino-6-((1-(5-chloro-3-(1,4-diazepan-1-yl)-4-oxo-3,4-dihydroquinazolin-2-yl)ethyl)amino)pyrimidine-5-carbonitrile], the results for the IC50 on PI3Kγ (setting [1]), on PI3Kδ (setting [2]) and on PI3Kβ (setting [3]) were more than 10000 nM, 13 nM and 370 nM, respectively.

As to `C[C@H](Nc1nc(N)nc(N)c1C#N)c1nc2cccc(Cl)c2c(=O)n1[C@H]1CCNC1` [Compound 30, 2,4-diamino-6-(((S)-1-(5-chloro-4-oxo-3-((S)-pyrrolidin-3-yl)-3,4-dihydroquinazolin-2-yl)ethyl)amino)pyrimidine-5-carbonitrile], the IC50 is more than 10000 nM on PI3Kγ (setting [1]), 140 nM on PI3Kδ (setting [2]) and 350 nM on PI3Kβ (setting [3]).

For the molecule `C[C@H](Nc1ncnc(N)c1C#N)c1nc2cccc(Cl)c2c(=O)n1C1CCN(C)CC1` [Compound 6, (S)-4-amino-6-((1-(5-chloro-3-(1-methylpiperidin-4-yl)-4-oxo-3,4-dihydroquinazolin-2-yl)ethyl)amino)pyrimidine-5-carbonitrile], the results for the IC50 at PI3Kγ (setting [1]), at PI3Kδ (setting [2]) and on PI3Kβ (setting [3]) were more than 10000 nM, 68 nM and 460 nM, respectively.

Turning to `C[C@H](Nc1nc(N)nc(N)c1C#N)c1nc2cccc(Cl)c2c(=O)n1[C@H]1CCCNCC1` [Compound 8, 2,4-diamino-6-(((S)-1-(3-((S)-azepan-4-yl)-5-chloro-4-oxo-3,4-dihydroquinazolin-2-yl)ethyl)amino)pyrimidine-5-carbonitrile], the IC50 at PI3Kγ (setting [1]) was more than 10000 nM; on PI3Kδ (setting [2]), 2 nM; at PI3Kβ (setting [3]), 62 nM.

As for `Cc1nc(N)nc(N[C@H](c2nc3cccc(Cl)c3c(=O)n2C2[C@H]3CNC[C@@H]23)C2CC2)c1C#N` (stereo in doubt) [Compound 14, 4-(((1S)-(3-((1R,5S)-3-azabicyclo[3.1.0]hexan-6-yl)-5-chloro-4-oxo-3,4-dihydroquinazolin-2-yl)(cyclopropyl)methyl)amino)-2-amino-6-methylpyrimidine-5-carbonitrile], the IC50 on PI3Kγ came to 480 nM; on PI3Kδ it was 0.3 nM; against PI3Kβ, 0.4 nM.

Take `Cc1nc(N)nc(N[C@@H](C)c2nc3c(F)ccc(Cl)c3c(=O)n2N2CCNCC2)c1C#N` [Compound 21, (S)-2-amino-4-((1-(5-chloro-8-fluoro-4-oxo-3-(piperazin-1-yl)-3,4-dihydroquinazolin-2-yl)ethyl)amino)-6-methylpyrimidine-5-carbonitrile]: the 50% inhibitory concentration (IC50) at PI3Kγ (setting [1]) came out at 890 nM; at PI3Kδ (setting [2]) it was 0.7 nM; at PI3Kβ (setting [3]) it was 2 nM.

For `Cc1nc(N)nc(N[C@H](c2nc3cccc(Cl)c3c(=O)n2N2CCNCC2)C2CC2)c1C#N` [Compound 46, (S)-2-amino-4-(((5-chloro-4-oxo-3-(piperazin-1-yl)-3,4-dihydroquinazolin-2-yl)(cyclopropyl)methyl)amino)-6-methylpyrimidine-5-carbonitrile], the IC50 worked out at 2600 nM at PI3Kγ (setting [1]), 1 nM at PI3Kδ (setting [2]) and 2 nM on PI3Kβ (setting [3]).

In the case of `C[C@H](Nc1nc(N)nc(N)c1Cl)c1nc2cccc(Cl)c2c(=O)n1N1CCN(CC(F)F)CC1` [Compound 112, (S)-5-chloro-2-(1-((2,6-diamino-5-chloropyrimidin-4-yl)amino)ethyl)-3-(4-(2,2-difluoroethyl)piperazin-1-yl)quinazolin-4(3H)-one], the IC50 on PI3Kγ (setting [1]) is more than 10000 nM; on PI3Kδ (setting [2]) it was 280 nM; on PI3Kβ (setting [3]) it was 7800 nM.

For the molecule `Cc1nc(N)nc(N[C@@H](C)c2nc3cccc(Cl)c3c(=O)n2N2CCN(CC(F)(F)F)CC2)c1C#N` [Compound 109, (S)-2-amino-4-((1-(5-chloro-4-oxo-3-(4-(2,2,2-trifluoroethyl)piperazin-1-yl)-3,4-dihydroquinazolin-2-yl)ethyl)amino)-6-methylpyrimidine-5-carbonitrile], the figures for the half-inhibitory concentration (IC50) at PI3Kγ (setting [1]), at PI3Kδ (setting [2]) and at PI3Kβ (setting [3]) were 660 nM, 14 nM and 290 nM, respectively.

For `CC[C@H](Nc1nc(N)nc(C)c1C#N)c1nc2cccc(Cl)c2c(=O)n1N1CCN(Cc2ccc(C(F)(F)F)cc2)CC1` [Compound 89, (S)-2-amino-4-((1-(5-chloro-4-oxo-3-(4-(4-(trifluoromethyl)benzyl)piperazin-1-yl)-3,4-dihydroquinazolin-2-yl)propyl)amino)-6-methylpyrimidine-5-carbonitrile], the IC50 at PI3Kγ (setting [1]) is more than 10000 nM; on PI3Kδ (setting [2]) it was 50 nM; on PI3Kβ (setting [3]), 4500 nM.

Consider `N#Cc1c(N)ncnc1N[C@H](c1nc2cccc(Cl)c2c(=O)n1N1CCNCC1)C1CC1` [Compound 102, (S)-4-amino-6-(((5-chloro-4-oxo-3-(piperazin-1-yl)-3,4-dihydroquinazolin-2-yl)(cyclopropyl)methyl)amino)pyrimidine-5-carbonitrile], for which the IC50 on PI3Kγ (setting [1]) was more than 10000 nM; at PI3Kδ (setting [2]) it was 2 nM; on PI3Kβ (setting [3]), 57 nM.

For the molecule `CC[C@H](Nc1nc(N)nc(N)c1C#N)c1nc2cccc(Cl)c2c(=O)n1N1CCN(Cc2ccc(F)cc2)CC1` [Compound 91, (S)-2,4-diamino-6-((1-(5-chloro-3-(4-(4-fluorobenzyl)piperazin-1-yl)-4-oxo-3,4-dihydroquinazolin-2-yl)propyl)amino)pyrimidine-5-carbonitrile], the values for the IC50 at PI3Kγ (setting [1]), on PI3Kδ (setting [2]) and on PI3Kβ (setting [3]) were 930 nM, 22 nM and 59 nM, respectively.

As for `C[C@H](Nc1nc(N)nc(N)c1C#N)c1nc2cccc(Cl)c2c(=O)n1N1CCN(CC(F)F)CC1` [Compound 111, (S)-2,4-diamino-6-((1-(5-chloro-3-(4-(2,2-difluoroethyl)piperazin-1-yl)-4-oxo-3,4-dihydroquinazolin-2-yl)ethyl)amino)pyrimidine-5-carbonitrile], the IC50 came to 730 nM at PI3Kγ (setting [1]), 24 nM on PI3Kδ (setting [2]) and 530 nM on PI3Kβ (setting [3]).
